From US10039781B2, “Pulse inhalation of nitric oxide for treating respiratory diseases” (Advanced Inhalation Therapies (AIT) Ltd., priority 2015, dated 2018)
Like-named read-outs stand apart in the source and are kept apart here.

Key:
microorganisms = experiment: In vitro exposure to 200 ppm gNO, average over all microorganisms of Table 1; type: cell-based; settings: average of the 15 microorganisms
Text: In vitro studies of the antimicrobial and antiviral effect of gNO have shown that the viability and vitality of viruses, bacteria and fungi decreases to a point of substantial eradication after the pathogen has been exposed to a certain amount of nitric oxide over a certain period of time. This amount, which can be referred to as the effective amount, can be estimated in terms of the concentration of NO in the gas mixture contacted with the pathogen, times the duration of the exposure. For example, the effective amount can be estimated in units of ppm-time-hour, or ppm-hour. Table 1 presents experimental data gathered for microorganisms exposed to 200 ppm gNO until the microorganisms are substantially eradicated*.

[1] = cited from earlier work
Klebsiella sp. #1 = settings: 200 ppm gNO until substantially eradicated; cited from earlier work
[2] = healthy humans, cited from earlier work
[3] = system: Pseudomonas aeruginosa pneumonia; settings: 160 ppm gNO, intermittent 30 minute exposures, rat; cited from earlier work
Acinetobader sp. = settings: 200 ppm gNO until substantially eradicated; cited from earlier work
S. aureus (ATCC) = settings: 200 ppm gNO until substantially eradicated; cited from earlier work
[4] = rats, gNO concentrations below 200 ppm, 6 hours/day for 28 days; cited from earlier work
Serracia sp. = settings: 200 ppm gNO until substantially eradicated; cited from earlier work
[5] = system: chronic, non-healing wound; settings: topical 200 ppm gNO, cited from earlier work
MRSA = settings: 200 ppm gNO until substantially eradicated; cited from earlier work
Klebsiella sp.#2 = settings: 200 ppm gNO until substantially eradicated; cited from earlier work
[6] = rats, cited from earlier work
P. aeruginosa (ATCC) = settings: 200 ppm gNO until substantially eradicated; cited from earlier work
S. maltophilia = settings: 200 ppm gNO until substantially eradicated; cited from earlier work
Candida albicans = settings: 200 ppm gNO until substantially eradicated; cited from earlier work
MRSA biofilm = settings: 200 ppm gNO for eight hours (1,600 ppm hours); cited from earlier work
E. coli = settings: 200 ppm gNO until substantially eradicated; cited from earlier work
Klebsiella sp. #3 = settings: 200 ppm gNO until substantially eradicated; cited from earlier work
Enterobacter sp. = settings: 200 ppm gNO until substantially eradicated; cited from earlier work
S. aureus (Clinical) = settings: 200 ppm gNO until substantially eradicated; cited from earlier work
[7] = Prospective phase I open label safety study of inhaled 160 ppm gNO in healthy adults; type: in vivo, human; settings: 160 ppm gNO for 30 minutes, five times a day
[8] = system: five planktonic species of methicillin resistant S. aureous (MRSA); settings: exposure to 1,600 ppm hours of gNO; cited from earlier work
Group B Streptococci = settings: 200 ppm gNO until substantially eradicated; cited from earlier work
Mycobacterium smegmatis = settings: 200 ppm gNO until substantially eradicated; cited from earlier work
[9] = system: bovine respiratory disease; settings: intermittent 30 minute exposures of gNO, cattle; cited from earlier work
[10] = 400 ppm gNO, first day of exposure
[11] = 500 ppm gNO, first day of exposure
[12] = five consecutive days, healthy adults

[N]=O [gNO, nitric oxide]
Effective amount in ppm-hour, Average (microorganisms): 1013.33 ppm-hour
half-life in the body ([1]; in vivo): less than 6 seconds
radius of action from its site of origin ([1]; in vivo): approximately 200 microns
nitrate excreted in the urine, share of the nitric oxide dose inhaled ([1]; predominant metabolite nitrate): more than 70%
Effective amount in ppm-hour (Klebsiella sp. #1): 1200 ppm-hour
levels of MetHb ([2]; inhalation of gNO at 128 ppm for 3 hours): > 5%
levels of MetHb ([2]; inhalation of gNO at 512 ppm for 55 minutes): > 5%
pulmonary bioburden and leukocyte infiltration [3]: effective to reduce the pulmonary bioburden and leukocyte infiltration
Effective amount in ppm-hour (Acinetobader sp.): 1200 ppm-hour
Effective amount in ppm-hour (S. aureus (ATCC)): 800 ppm-hour
mortality [4]: No deaths occurred
Effective amount in ppm-hour (Serracia sp.): 1200 ppm-hour
wound size reduction ([5]; at one week): 42%
presence of biofilm ([5]; within the first three days of treatment): no longer visibly present
Effective amount in ppm-hour (MRSA): 1000 ppm-hour
Effective amount in ppm-hour (Klebsiella sp.#2): 1000 ppm-hour
mortality ([6]; 300 ppm gNO, groups of 10 rats): Six of the animals treated with 300 ppm gNO died during the first 1-2 days
MetHb levels [6, 10]: 72.5 percents
mortality [6, 10]: all of the animals died
MetHb levels [6, 11]: 67 percents
mortality [6, 11]: all of the animals died
Effective amount in ppm-hour (P. aeruginosa (ATCC)): 600 ppm-hour
Effective amount in ppm-hour (S. maltophilia): 800 ppm-hour
Effective amount in ppm-hour (Candida albicans): 800 ppm-hour
MRSA in biofilm (MRSA biofilm): shown to reduce MRSA
Effective amount in ppm-hour (E. coli): 1000 ppm-hour
Effective amount in ppm-hour (Klebsiella sp. #3): 1200 ppm-hour
Effective amount in ppm-hour (Enterobacter sp.): 1200 ppm-hour
Effective amount in ppm-hour (S. aureus (Clinical)): 800 ppm-hour
Forced expiratory volume in 1 sec (FEV1) percentage and other lung function parameters [7, 12]: improved
adverse events [7, 12]: neither significant adverse events nor adverse events attributable to gNO inhalation occurred
methemoglobin levels [7, 12]: 0.9%
tolerability [7, 12]: all individuals tolerated the gNO treatment courses well
serum nitrites/nitrates, prothrombin, pro-inflammatory cytokine and chemokine levels ([7]; baseline versus day 5): did not differ between baseline and day 5
population of MRSA planktonic strains [8]: A reduction in the population of all five MRSA planktonic strains was observed
Effective amount in ppm-hour (Group B Streptococci): 400 ppm-hour
Effective amount in ppm-hour (Mycobacterium smegmatis): 2000 ppm-hour
clinical symptoms of bovine respiratory disease [9]: shown to decrease the clinical symptoms
